Structures can show the parent of a compound that is named as a salt. Where two headings read alike, the source gives them in different places.
Legend:
[1] = test system: Bradykinin-Induced Knee Pain Model
Experimental: The induction and evaluation of the present model was basically carried out in accordance with Ann Rheum Dis, 52, 817-822 (1993). A diluted solution, which was diluted with a solvent so as to obtain a vehicle and the compound A having a predetermined concentration, was orally administered to male SD rats (6-7 week old, obtained by Charles River Laboratories Japan, Inc.). This test was carried out for 10 rats of each group. The solvent herein used was distilled water. […] The inhibition rate of the drug to be tested was calculated by setting the difference in weight of a vehicle-administered group to an inhibition rate of 0% and the difference in weight of a normal group to an inhibition rate of 100%. Significant difference testing was carried out by between-group comparison between the vehicle group and the drug group using a Dunnett's t-test after ANOVA testing.

[2] = test system: Monoiodoacetate (MIA)-Induced Osteoarthritis Model; experiment: Analgesic action in monoiodoacetate (MIA)-induced osteoarthritis model (difference in hindlimb weight); type: in vivo, rat; conditions: male SD rats, 3 weeks after MIA, oral, compound A 30 mg/kg, 1 hour after administration
Experimental: The present disease model was produced based on the description of Toxicol Pathol 31 (6), 619-624 (2003). […] MIA was dissolved in physiological saline and 50 μl of the resulting solution was administered with a needle (26 gauge, 0.5 inch). […] The solvent herein used was distilled water. One hour after administration, the difference in weight between the left and right hindlimbs was measured using an incapacitance tester (manufactured by Linton Instrumentation, Norfolk, UK).

[3] = test system: Adjuvant-Derived Arthritis Rat; experiment: Inhibitory effect on the difference in hindlimb weight of adjuvant-derived arthritis rat; type: in vivo
Experimental: In this test, female Lewis rats (7-8 weeks old) were used. 50 μL of H37 Ra (manufactured by DIFCO Co.), Mycobacterium tuberculosis suspended with liquid paraffin to a concentration of 10 mg/mL was subcutaneously administered around the right hind footpad. […] The number of rats of each group was 8. The solvent herein used was distilled water. When taking into consideration the period for obtaining a maximum in-blood-concentration, at one hour after administration, the difference in weight between the left and right hindlimbs was measured using an incapacitance tester (manufactured by Linton Instrumentation, Norfolk, UK).

[4] = test system: Monoiodoacetate (MIA)-Induced Osteoarthritis Model; conditions: rats, 3 weeks after MIA administration, inflammation already recovered; cited from earlier work
[5] = test system: Bradykinin-Induced Knee Pain Model; conditions: as a joint injection; cited from earlier work
[6] = compound A 10 mg/kg vs duloxetine 30 mg/kg, oral

C1=Cc2cccc(OCC3CNCCO3)c2C1 (single isomer, unassigned; (+)) [compound A benzenesulfonate, (+)-2-[(inden-7-yloxy)methyl]morpholine]
improvement effect (inhibition rate) on pain behavior score ([1]; male SD rats, oral, 10 mg/kg, bradykinin injected 1 hour after administration): 55%

C1=Cc2cccc(OCC3CNCCO3)c2C1 (single isomer, unassigned; (+)) [compound A hydrobromate, (+)-2-[(inden-7-yloxy)methyl]morpholine]
improvement effect (inhibition rate) on the difference in hindlimb weight [2]: 54% | improvement effect (inhibition rate) on the difference in hindlimb weight ([3]; female Lewis rats, day after adjuvant, oral, 10 mg/kg, 1 hour after administration): 65%

C1=Cc2cccc(OCC3CNCCO3)c2C1 (single isomer, unassigned; (+)) [compound A, (+)-2-[(inden-7-yloxy)methyl]morpholine]
improvement effect relative to duloxetine [1, 6]: ~3 fold | improvement effect relative to duloxetine [3, 6]: about 3 fold

O=C(O)Cc1ccccc1Nc1c(Cl)cccc1Cl [diclofenac]
effectiveness of NSAIDs on pain in this stage of the MIA model [4]: not effective

CNCC[C@H](Oc1cccc2ccccc12)c1cccs1 [duloxetine hydrochloride, (S)—N-methyl-γ-(1-naphthalenyloxy)-2-thiophenepropanamine]
improvement effect (inhibition rate) on the difference in hindlimb weight ([3]; rat, in vivo, po, 30 mg/kg): 63%

CNCC[C@H](Oc1cccc2ccccc12)c1cccs1 [duloxetine, (S)—N-methyl-γ-(1-naphthalenyloxy)-2-thiophenepropanamine]
improvement effect (inhibition rate) on pain behavior score ([1]; rat, in vivo, po, 30 mg/kg): 56%

COc1ccc2c(c1)c(CC(=O)O)c(C)n2C(=O)c1ccc(Cl)cc1 [indomethacin]
effectiveness of NSAIDs on pain in this stage of the MIA model [4]: not effective

hyaluronan
effectiveness in the bradykinin model [5]: effective

— US20110152268A1, “NOVEL PHARMACEUTICAL COMPOSITION FOR TREATING NOCICEPTIVE PAIN” (ASTELLAS PHARMA INC., priority 2008, published 2011)
